Data set [1] addresses T1, ENaC (Epithelial Sodium Channel) (Mus musculus, UniProt Q61180+Q9WU38+Q9WU39).
T1 construct: Mouse kidney M-1 cells were cultivated in DMEM; endogenous in cells; host or cells: mouse kidney M-1 cells
T1 sequence (Q61180 1-699): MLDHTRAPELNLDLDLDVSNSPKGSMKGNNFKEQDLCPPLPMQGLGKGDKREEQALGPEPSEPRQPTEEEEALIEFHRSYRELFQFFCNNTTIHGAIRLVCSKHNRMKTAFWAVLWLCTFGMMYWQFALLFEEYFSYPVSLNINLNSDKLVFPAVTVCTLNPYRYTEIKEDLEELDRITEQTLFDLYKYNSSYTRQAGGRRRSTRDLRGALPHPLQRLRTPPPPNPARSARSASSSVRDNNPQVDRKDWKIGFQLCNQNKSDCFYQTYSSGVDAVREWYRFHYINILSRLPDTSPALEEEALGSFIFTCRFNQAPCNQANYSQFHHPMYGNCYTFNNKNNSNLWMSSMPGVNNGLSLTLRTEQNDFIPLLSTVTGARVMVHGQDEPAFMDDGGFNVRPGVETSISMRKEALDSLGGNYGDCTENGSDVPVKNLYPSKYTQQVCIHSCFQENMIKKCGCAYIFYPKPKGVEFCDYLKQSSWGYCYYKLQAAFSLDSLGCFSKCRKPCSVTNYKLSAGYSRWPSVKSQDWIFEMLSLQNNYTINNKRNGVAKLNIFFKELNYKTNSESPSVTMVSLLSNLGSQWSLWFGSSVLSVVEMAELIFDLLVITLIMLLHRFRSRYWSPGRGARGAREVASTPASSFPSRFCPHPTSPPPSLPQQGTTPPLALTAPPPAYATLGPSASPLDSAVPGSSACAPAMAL
T1 sequence (Q9WU38 1-638): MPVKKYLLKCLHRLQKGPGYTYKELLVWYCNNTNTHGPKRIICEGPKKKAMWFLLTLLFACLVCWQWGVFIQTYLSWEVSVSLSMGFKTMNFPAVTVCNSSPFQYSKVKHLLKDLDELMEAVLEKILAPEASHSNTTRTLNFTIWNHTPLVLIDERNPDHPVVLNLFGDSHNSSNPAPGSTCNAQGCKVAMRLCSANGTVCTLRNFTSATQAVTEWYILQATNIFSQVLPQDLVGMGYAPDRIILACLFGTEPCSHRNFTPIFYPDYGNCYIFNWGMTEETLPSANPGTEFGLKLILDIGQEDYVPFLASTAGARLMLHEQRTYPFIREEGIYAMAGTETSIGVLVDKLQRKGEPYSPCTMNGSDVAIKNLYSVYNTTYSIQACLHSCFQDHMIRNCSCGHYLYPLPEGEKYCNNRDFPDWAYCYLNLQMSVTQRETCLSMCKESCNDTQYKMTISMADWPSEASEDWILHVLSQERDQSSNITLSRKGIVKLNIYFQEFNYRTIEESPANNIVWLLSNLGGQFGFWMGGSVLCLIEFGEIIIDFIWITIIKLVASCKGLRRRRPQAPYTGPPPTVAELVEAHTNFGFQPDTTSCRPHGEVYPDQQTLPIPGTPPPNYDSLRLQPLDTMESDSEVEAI
T1 sequence (Q9WU39 1-655): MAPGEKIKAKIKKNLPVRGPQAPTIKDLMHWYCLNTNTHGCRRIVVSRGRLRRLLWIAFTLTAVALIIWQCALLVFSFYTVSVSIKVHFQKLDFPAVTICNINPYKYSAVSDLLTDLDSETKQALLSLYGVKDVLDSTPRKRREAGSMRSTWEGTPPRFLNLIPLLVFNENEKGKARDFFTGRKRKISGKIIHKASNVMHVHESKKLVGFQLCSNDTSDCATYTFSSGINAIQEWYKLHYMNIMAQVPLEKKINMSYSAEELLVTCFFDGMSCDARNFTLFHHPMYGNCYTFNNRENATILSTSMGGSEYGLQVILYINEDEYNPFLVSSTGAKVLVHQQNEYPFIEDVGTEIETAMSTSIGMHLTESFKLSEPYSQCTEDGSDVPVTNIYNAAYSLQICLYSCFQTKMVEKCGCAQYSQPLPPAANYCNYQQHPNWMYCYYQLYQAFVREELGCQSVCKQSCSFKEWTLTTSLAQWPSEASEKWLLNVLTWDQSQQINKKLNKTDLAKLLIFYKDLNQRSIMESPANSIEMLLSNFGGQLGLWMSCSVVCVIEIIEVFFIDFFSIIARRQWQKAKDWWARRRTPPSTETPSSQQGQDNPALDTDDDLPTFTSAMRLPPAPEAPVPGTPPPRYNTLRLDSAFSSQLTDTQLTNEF
The data set is described as follows: Ussing chamber: short circuit current in M-1 cells. As to conditions: Ussing chamber, mouse kidney M-1 cells, amiloride sensitive I_SC, apical application, 37° C.; read-out: IC50. It is filed as cell-based. The protocol: Mouse kidney M-1 cells were cultivated in DMEM containing 5% FCS and 5 μM dexamethasone for 10 to 12 days on polyester transwell filters. Filters were inserted into a teflon-coated well-plate which fit into the ussing chamber system. Prior to measurement the medium of M-1 cells was replaced with Caco-2 transport buffer (Invitrogen, Germany). During measurements, the Ussing chamber temperature was kept at 37° C. Short circuit currents (I_sc) were measured in the voltage-clamp mode with the software package Lab View for data acquisition and analysis. The transepithelial electrical resistance (TEER) was determined by the application of voltage steps of ±5 mV every 5 sec. Compounds were administered at a final concentration of 3 μM or at increasing concentrations (1-3-10 μM) to the apical solution. At the end of each experiment the amiloride sensitive I_SC was measured by adding 3 μM amiloride to the apical compartment. Results are expressed as inhibition in percent of the amiloride effect or as IC50.
With the example compounds given above, the following IC50 values were determined in the Ussing Chamber assay: […]

Data set [2] can be described thus: Permeability in CALU-3 cells. In kind it is in vitro ADME. As to conditions: human, CALU-3 monolayers, 10 μM compound, pH 7.4, 37° C.; for Papp A→B at 90 min, 10 μM: apical-to-basal; for Papp B→A at 90 min, 10 μM: basal-to-apical. The protocol:
Permeability in CALU-3 Cells:
Permeability measurements across polarized, confluent CALU-3 cell monolayers grown on permeable filter supports are used to provide information on the potential of a compound to pass the lung epithelium. Apparent permeability coefficients (Papp) of the compounds across the CALU-3 cell monolayers are measured (pH 7.4, 37° C.) in apical-to-basal (AB) and basal-toapical (BA) transport direction.
CALU-3 cells (1-2×10^5 cells/1 cm^2 area) are seeded on filter inserts (Costar transwell polycarbonate filters, 0.4 μm pore size) and cultured (for 10-12 days DMEM) until tight monolayers are formed. Compounds of interest are dissolved in appropriate solvent (DMSO, 10 mM stock solution). Stock solutions are diluted with HTP-4 buffer (128.13 mM NaCl, 5.36 mM KC, 1 mM MgSO4, 1.8 mM CaCl2, 4.17 mM NaHCO3, 1.19 mM Na2HPO4×7H2O, 0.41 mM NaH2PO4xH2O, 15 mM HEPES, 20 mM glucose, 0.25% BSA, pH 7.4) to prepare the transport solutions (10 μM compound, final DMSO<=0.5%). The transport solution (TL) is applied to the apical or basolateral donor side for measuring A-B or B-A permeability (3 filter replicates), respectively. The receiver side contains the same buffer as the donor side. After 30 min of accommodation, samples are collected at the start t0=0 min and at the end of the experiment tn=90 min from the donor and at 0, 30, 60, and 90 min also from the receiver chamber. Volume removed is replenished by HTP-4 buffer. The compound concentration in the samples is measured by HPLC-MS/MS or scintillation counting. The permeability coefficient (Papp) and efflux ratio are calculated according to: Papp [cm/s]=(concentration receiver [nM]*volume receiver [mL]/time interval [sec])*(1/filter area)*(1/donor concentration [nM])
With example compounds given above, the following permeability values were determined in the CALU-3 cells assay: […]

The record followed here is patent publication US9073954B2, “5-substituted benzimidazolium compounds” (Boehringer Ingelheim International GmbH, priority 2013, dated 2015).

The structures appear in SMILES notation. Bounds are passed on as bounds.

As usually defined, the IC50 is the concentration needed to halve the response being measured. As a reminder, the Papp A→B is how fast a substance crosses the layer from the apical side. Read a low Papp A→B as poor permeation. The Papp B→A is how fast a substance crosses the layer from the basolateral side. Turning to `CCOP(=O)([O-])CCCOc1ccc2c(c1)n(CC)c(CNC(=O)c1nc(Br)c(N)nc1N)[n+]2CCOC` [Example 2.1], the IC50 in data set [1] is 16 nM. Further, in data set [2], the Papp A→B at 90 min, 10 μM amounted to 2 nm/s and the Papp B→A at 90 min, 10 μM stood at 0.8 nm/s.
Regarding `CCNC(=O)[C@@H](C)Oc1ccc2c(c1)n(CC)c(CNC(=O)c1nc(Cl)c(N)nc1N)[n+]2CC` [Example 3.5], the IC50 in data set [1] turned out to be 0.5 nM. For the same compound, in data set [2], the Papp A→B at 90 min, 10 μM was 10 nm/s and the Papp B→A at 90 min, 10 μM is 4 nm/s.
Take `CCn1c(CNC(=O)c2nc(Cl)c(N)nc2N)[n+](C)c2cc(Cl)c(OCCOCCOC)cc21` [Example 3.8]: in data set [1], the IC50 stood at 0.4 nM. Besides, in data set [2], the apparent permeability from apical to basolateral (Papp A→B) at 90 min, 10 μM was determined as 2 nm/s and the basolateral-to-apical permeability (Papp B→A) at 90 min, 10 μM amounted to 2 nm/s.
In the case of `CCn1c(CNC(=O)c2nc(Cl)c(N)nc2N)[n+](CC)c2cc(F)c(C(=O)N3CCOCC3)cc21` [Example 3.12], the IC50 in data set [1] is 0.4 nM. In data set [2], this compound had a Papp A→B at 90 min, 10 μM of 1 nm/s and a basolateral-to-apical permeability (Papp B→A) at 90 min, 10 μM of 2 nm/s.
For `CCn1c(CNC(=O)c2nc(Cl)c(N)nc2N)[n+](CC)c2ccc(CNC(=O)CN(C)C)cc21.[Cl-]` [Example 7.1], in that order: 2 nM, below 9 nm/s and 2 nm/s.
